The values that follow come from article PMC11053488, “Influence of Aza-Glycine Substitution on the Internalization of Penetratin” (Pharmaceutics, 2024).

Data set [1] deals with A-431 cells. As to the kind of experiment: Cellular uptake of Cf-labelled peptides by flow cytometry. Format: cell-based. As to conditions: 5 µM, 90 min, 37 °C, compared with Pen(desMet). The method, then:
The cells were treated with a solution of peptides at 5 µM concentration at 37 °C for 90 min. The measured fluorescence values were corrected with the autofluorescence of the untreated cells. To determine the toxicity of the conjugates, the live/dead cell ratio was calculated.
Figure 2 Comparison of the cellular uptake of the labelled penetratin derivatives into A-431 cells. Cells were incubated with 5 µM peptide solution for 90 min at 37 °C. The fluorescence intensity of the cells was determined by flow cytometry. The fluorescence intensity is relative to Pen(desMet) at 5 µM (100%). Data represent the mean ± standard deviation (SD). Any significant difference to the control was measured using the Student’s t test.
On the technique in general: In flow cytometry, cells or beads pass a laser one at a time.

The subject of data set [2] is A-431 cells. The experiment in a line: Cellular uptake after pretreatment with endocytosis inhibitors or ATP depletion, flow cytometry. As to conditions: then peptide 5 µM 90 min; for Cellular uptake with NaN3 and DOG, % of the untreated control: NaN3 500 µM and 2-deoxyglucose 250 mM pretreatment 30 min (ATP depletion), mean.
Protocol: The cells were incubated for 24 h at 37 °C. The cells were treated with a serum-free medium as a negative control and with peptide solutions in 5 µM concentration in a serum-free medium for 90 min. After the incubation, the cells were washed, and 100 µL of trypsin was applied for 10 min to eliminate peptides adhered to the membrane and to detach the cells from the plates. Trypsin activity was stopped by adding 800 µL of HPMI buffer (glucose, NaHCO3, NaCl, HEPES, KCl, MgCl2, CaCl2, Na2HPO4·2H2O) containing 10% fetal bovine serum. Cells were then transferred from the plates to FACS tubes. Centrifugation of the cells took place at 216× g at 4 °C for 5 min, and the supernatant was removed. Resuspension of the cells was performed by 250 µL HPMI, followed by fluorescence intensity measurements using a flow cytometer (BDLSR II, BD Bioscience, San Jose, CA, USA). The analysis of the data was performed using FACSDiVa 5.0 software. To study the effect of inhibitors, cells were pretreated with the solution of inhibitors for 30 min, followed by the treatment with the peptide solution at 5 µM for 90 min. Inhibition of macropinocytosis was performed by using 5-(N-Ethyl-N-isopropyl)amiloride (EIPA) (500 µM) [46], of clathrin-mediated endocytosis by using chlorpromazine (CPZ) (300 µM) [47]. The caveolae/lipid raft-mediated endocytosis was prevented with methyl-β-cyclodextrin (mBCD) (36 mM) [48], and colchicine (Col) (200 mM) was employed to determine the role of microtubules and consequently, the significance of pinocytosis [49]. To inhibit all endocytosis routes, sodium azide (NaN3) (500 µM) and 2-Deoxyglucose (DOG) (250 mM) was used.
The following endocytic inhibitors were used: EIPA (5-(N-ethyl-N-isopropyl) amiloride) as an inhibitor of macropinocytosis, chlorpromazine (CPZ) as an inhibitor of a clathrin-mediated endocytosis, and the cholesterol-depleting reagent methyl-beta-cyclodextrin (mBCD) was used to inhibit the caveolae-mediated endocytosis. Finally, colchicine (COL) was applied to inhibit microtubule formation.
A-431 cells were pretreated with the EIPA (500 µM), CPZ (300 µM), mBCD (36 mM), COL (200 mM), NaN3 (500 µM), and DOG (250 mM) for 30 min, followed by treatment with peptides (5 µM) for 90 min. Any significant difference from the control was determined by Student’s t-test (* p < 0.05). Data represent the mean ± standard deviation (SD).The asterisks show a significant difference between the control Pen(desMet) and its derivatives (* p < 0.05, ** p < 0.01, *** p < 0.001).
In addition, the A-431 cells were pretreated with sodium azide (NaN3) and 2-deoxyglucose (DOG) to study the energy-independent pathways. This pretreatment results in ATP depletion and therefore the inhibition of energy-dependent pathways (Figure 3).

For “Cf-RQIKIGFQNRRKWKK-NH2 [Trp48GlyPen(desMet), Cf-labelled Pen(desMet) with Trp48 replaced by glycine]”, the “Cellular uptake (in words)” value in the data set with A-431 cells [1] is “dramatically decreased the cellular uptake”.
Consider “Cf-RQIKIWFQNRRK-azaGly-KK-NH2 [Trp56aGlyPen(desMet)]”, for which the “Cellular uptake with NaN3 and DOG, % of the untreated control” value in the data set on A-431 cells [2] was 97%. The “Effect of azide/DOG treatment on cellular uptake (in words)” value with A-431 cells [2] (NaN3 500 µM and DOG 250 mM pretreatment 30 min) was “did not have any effect”.
For the substance “Cf-RQIKI-azaGly-FQNRRKWKK-NH2 [Trp48aGlyPen(desMet), Cf-labelled Pen(desMet) with Trp48 replaced by aza-glycine]”, the “Cellular uptake (in words)” value with A-431 cells [1] is reported as “dramatically decreased the cellular uptake”.
Cf-RQIKIWFQNRRKWKK-NH2 [Pen(desMet)]: in the data set on A-431 cells [2], the “Cellular uptake with NaN3 and DOG, % of the untreated control” value turned out to be 79%.
The same measure, in the same setting: the value for “Cf-RQIKIWFQNRRKGKK-NH2 [Trp56GlyPen(desMet)]” was 50%.
